According to PubChem BioAssay AID248 (DTP/NCI, 2004):
Where “and” joins values, the source holds several entries; their conditions need not be identical. Equal entries are not always repeated. Toxic doses and inconclusive results are not listed. Rule as the data show it: active = T/C of 150% or more; inactive = T/C below 125%.

System: L1210 leukemia ip in BDF1 mice, survival T/C
Assay: NCI In Vivo Anticancer Drug Screen. Data for tumor model L1210 Leukemia (intraperitoneal) in B6D2F1 (BDF1) mice
Settings: endpoint: mean survival time, higher = longer survival
Procedure, shortened: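 Transplanted-tumor mice were given test agent; controls received vehicle only. Survival readings from the two groups were divided (treated over control).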

[1] = dose: 100.0 mg/kg/injection, schedule: Q01DX009 (ip), vehicle: Klucel (hydroxypropylcellulose) (HPC)
[2] = dose: 200.0 mg/kg/injection, schedule: Q01DX009 (ip), vehicle: Klucel (hydroxypropylcellulose) (HPC)
[3] = dose: 400.0 mg/kg/injection, schedule: Q01DX009 (ip), vehicle: Klucel (hydroxypropylcellulose) (HPC)
[4] = dose: 100.0 mg/kg/injection, schedule: Q04DX003 (ip), vehicle: Klucel (hydroxypropylcellulose) (HPC)
[5] = dose: 200.0 mg/kg/injection, schedule: Q04DX003 (ip), vehicle: Klucel (hydroxypropylcellulose) (HPC)
[6] = dose: 400.0 mg/kg/injection, schedule: Q04DX003 (ip), vehicle: Klucel (hydroxypropylcellulose) (HPC)
[7] = dose: 100.0 mg/kg/injection, schedule: Q04DX003 (ip), vehicle: saline
[8] = dose: 200.0 mg/kg/injection, schedule: Q04DX003 (ip), vehicle: saline
[9] = dose: 400.0 mg/kg/injection, schedule: Q04DX003 (ip), vehicle: saline
[10] = dose: 100.0 mg/kg/injection, schedule: Q04DX002 (ip), vehicle: Klucel (hydroxypropylcellulose) (HPC)
[11] = dose: 25.0 mg/kg/injection, schedule: Q01DX009 (ip), vehicle: saline
[12] = dose: 50.0 mg/kg/injection, schedule: Q01DX009 (ip), vehicle: saline
[13] = dose: 100.0 mg/kg/injection, schedule: Q01DX001 (ip), vehicle: saline
[14] = dose: 200.0 mg/kg/injection, schedule: Q01DX001 (ip), vehicle: saline
[15] = dose: 100.0 mg/kg/injection, schedule: Q01DX001 (ip), vehicle: carboxymethylcellulose (CMC)
[16] = dose: 200.0 mg/kg/injection, schedule: Q01DX001 (ip), vehicle: carboxymethylcellulose (CMC)
[17] = dose: 400.0 mg/kg/injection, schedule: Q01DX001 (ip), vehicle: carboxymethylcellulose (CMC)

Measured: T/C

OCC1OC(n2cnc3c(Cl)ncnc32)C(O)C1O (stereo not drawn)
inactive: dose: 62.5 mg/kg/injection, schedule: Q01DX009 (ip), vehicle: saline 96 % of control | dose: 62.5 mg/kg/injection, schedule: Q01DX010 (ip), vehicle: saline 102 % of control | dose: 62.5 mg/kg/injection, schedule: Q01DX Z (ip), vehicle: carboxymethylcellulose (CMC) 102 % of control | [1] 102 % of control | dose: 125.0 mg/kg/injection, schedule: Q01DX009 (ip), vehicle: saline 93 % of control and 89 % of control | dose: 125.0 mg/kg/injection, schedule: Q01DX010 (ip), vehicle: saline 89 % of control and 92 % of control | dose: 125.0 mg/kg/injection, schedule: Q01DX Z (ip), vehicle: carboxymethylcellulose (CMC) 96 % of control | dose: 250.0 mg/kg/injection, schedule: Q01DX009 (ip), vehicle: saline 96 % of control and 91 % of control | dose: 250.0 mg/kg/injection, schedule: Q01DX010 (ip), vehicle: saline 100 % of control and 92 % of control | dose: 250.0 mg/kg/injection, schedule: Q01DX Z (ip), vehicle: carboxymethylcellulose (CMC) 110 % of control | dose: 300.0 mg/kg/injection, schedule: Q01DX009 (ip), vehicle: Klucel (hydroxypropylcellulose) (HPC) 101 % of control | dose: 440.0 mg/kg/injection, schedule: Q01DX001 (ip), vehicle: carboxymethylcellulose (CMC) 96 % of control | dose: 500.0 mg/kg/injection, schedule: Q01DX009 (ip), vehicle: Klucel (hydroxypropylcellulose) (HPC) 100 % of control | dose: 500.0 mg/kg/injection, schedule: Q01DX009 (ip), vehicle: saline 96 % of control and 98 % of control | dose: 500.0 mg/kg/injection, schedule: Q01DX010 (ip), vehicle: saline 97 % of control and 88 % of control | dose: 500.0 mg/kg/injection, schedule: Q01DX Z (ip), vehicle: carboxymethylcellulose (CMC) 94 % of control | dose: 670.0 mg/kg/injection, schedule: Q01DX001 (ip), vehicle: carboxymethylcellulose (CMC) 95 % of control | dose: 1000.0 mg/kg/injection, schedule: Q01DX001 (ip), vehicle: carboxymethylcellulose (CMC) 95 % of control | dose: 1000.0 mg/kg/injection, schedule: Q01DX009 (ip), vehicle: Klucel (hydroxypropylcellulose) (HPC) 106 % of control | dose: 1500.0 mg/kg/injection, schedule: Q01DX001 (ip), vehicle: carboxymethylcellulose (CMC) 90 % of control | dose: 2250.0 mg/kg/injection, schedule: Q01DX001 (ip), vehicle: carboxymethylcellulose (CMC) 97 % of control

Cc1ccc([N+](=O)[O-])cc1NS(=O)(=O)c1cc(Cl)c(Cl)cc1Cl
inactive: [1] 95 % of control | [2] 108 % of control | [3] 90 % of control

CC(=O)CC(=O)Nc1cccc(C)c1C
inactive: [1] 95 % of control | [4] 97 % of control | [2] 88 % of control | [5] 106 % of control | [3] 88 % of control | [6] 105 % of control

COC1OC(C)CC(O)C1O (stereo not drawn)
inactive: [7] 97 % of control | [8] 103 % of control | [9] 109 % of control

COC(=O)c1cc(C)c(Br)c(OC)c1
inactive: [1] 98 % of control | [4] 94 % of control | [2] 100 % of control | [5] 111 % of control | [6] 100 % of control

c1ccc2c[n+](CCc3c[nH]c4ccccc34)ccc2c1
inactive: [10] 100 % of control | [4] 96 % of control | [5] 104 % of control

CCN1/C(=C\c2ccc3cc(OC)ccc3[n+]2CC)[Se]c2ccc(OC)cc21
inactive: dose: 1.0 mg/kg/injection, schedule: Q01DX001 (ip), vehicle: other 98 % of control | dose: 2.0 mg/kg/injection, schedule: Q01DX001 (ip), vehicle: other 103 % of control | dose: 4.0 mg/kg/injection, schedule: Q01DX001 (ip), vehicle: other 103 % of control

O=[N+]([O-])/C=C/c1ccc([N+](=O)[O-])cc1Cl
inactive: dose: 12.5 mg/kg/injection, schedule: Q01DX009 (ip), vehicle: saline 101 % of control | [11] 103 % of control | dose: 50.0 mg/kg/injection, schedule: Q01DX001 (ip), vehicle: saline 100 % of control | [12] 108 % of control | dose: 50.0 mg/kg/injection, schedule: Q04DX003 (ip), vehicle: saline with Tween-80 119 % of control | [13] 93 % of control | [14] 102 % of control

C[N+](C)(C)C1=CC=CC=C1.Br[Br-]Br
inactive: dose: 12.5 mg/kg/injection, schedule: Q01DX009 (ip), vehicle: other 98 % of control | dose: 12.5 mg/kg/injection, schedule: Q04DX003 (ip), vehicle: Klucel (hydroxypropylcellulose) (HPC) 102 % of control | dose: 25.0 mg/kg/injection, schedule: Q01DX009 (ip), vehicle: other 98 % of control | [11] 104 % of control | dose: 25.0 mg/kg/injection, schedule: Q04DX003 (ip), vehicle: Klucel (hydroxypropylcellulose) (HPC) 102 % of control | dose: 50.0 mg/kg/injection, schedule: Q01DX009 (ip), vehicle: other 95 % of control | [12] 105 % of control | dose: 50.0 mg/kg/injection, schedule: Q04DX003 (ip), vehicle: Klucel (hydroxypropylcellulose) (HPC) 101 % of control | dose: 100.0 mg/kg/injection, schedule: Q01DX001 (ip), vehicle: Klucel (hydroxypropylcellulose) (HPC) 101 % of control | [4] 104 % of control

CC1OC1C1OC1C (stereo not drawn)
inactive: dose: 100.0 mg/kg/injection, schedule: Q04DX002 (ip), vehicle: saline 109 % of control | [7] 104 % of control and 101 % of control and 97 % of control | dose: 200.0 mg/kg/injection, schedule: Q04DX002 (ip), vehicle: saline 109 % of control | [8] 108 % of control and 111 % of control and 95 % of control | dose: 400.0 mg/kg/injection, schedule: Q04DX002 (ip), vehicle: saline 109 % of control | [9] 111 % of control and 97 % of control and 98 % of control

O=C([S][Ge]([c]1ccccc1)([c]1ccccc1)[c]1ccccc1)c1ccc([N+](=O)[O-])cc1
inactive: [1] 114 % of control | [2] 92 % of control

O=C(Nc1ccc(Cl)c(Cl)c1)O/N=C/c1ccccn1
inactive: dose: 50.0 mg/kg/injection, schedule: Q01DX009 (ip), vehicle: saline with Tween-80 96 % of control | dose: 100.0 mg/kg/injection, schedule: Q01DX009 (ip), vehicle: saline with Tween-80 91 % of control and 92 % of control | dose: 100.0 mg/kg/injection, schedule: Q04DX003 (ip), vehicle: saline with Tween-80 95 % of control | dose: 200.0 mg/kg/injection, schedule: Q04DX003 (ip), vehicle: saline with Tween-80 90 % of control | dose: 400.0 mg/kg/injection, schedule: Q01DX009 (ip), vehicle: saline with Tween-80 91 % of control | dose: 400.0 mg/kg/injection, schedule: Q04DX003 (ip), vehicle: saline with Tween-80 91 % of control

N#CC1(Nc2ccc(-c3ccc(Cl)cc3)cc2)CCCC1
inactive: dose: 50.0 mg/kg/injection, schedule: Q01DX001 (ip), vehicle: carboxymethylcellulose (CMC) 91 % of control | [15] 91 % of control | [16] 87 % of control

O=C(Nc1ccsc1)c1ccccc1
inactive: [15] 110 % of control | dose: 177.6 mg/kg/injection, schedule: Q01DX001 (ip), vehicle: carboxymethylcellulose (CMC) 98 % of control | [16] 91 % of control | dose: 266.8 mg/kg/injection, schedule: Q01DX001 (ip), vehicle: carboxymethylcellulose (CMC) 100 % of control | [17] 90 % of control | dose: 600.0 mg/kg/injection, schedule: Q01DX001 (ip), vehicle: carboxymethylcellulose (CMC) 102 % of control

NNC(=O)C(Oc1ccccc1Cl)c1ccccc1 (stereo not drawn)
inactive: [15] 105 % of control | [16] 97 % of control | [17] 105 % of control

O=c1[nH]cnc2c1ncn2Cc1cccc(Cl)c1
inactive: dose: 50.0 mg/kg/injection, schedule: Q04DX002 (ip), vehicle: Klucel (hydroxypropylcellulose) (HPC) 86 % of control | [10] 94 % of control | dose: 200.0 mg/kg/injection, schedule: Q04DX002 (ip), vehicle: Klucel (hydroxypropylcellulose) (HPC) 91 % of control

CC(=O)C1(C)OC(c2ccc(F)cc2)=NC1=O (stereo not drawn)
inactive: [13] 102 % of control | [14] 102 % of control | dose: 400.0 mg/kg/injection, schedule: Q01DX001 (ip), vehicle: saline 98 % of control
